Reference: patent EP1285920A1, “C10 Ester sustituted taxanes as antitumor agents” (Florida State University Research Foundation, Inc., priority 2001, dated 2003)

Test system: HCT116
Experiment: In Vitro cytotoxicity measured by the cell colony formation assay
Format: cell-based, human
Settings: HCT116 colony formation; 72 h with drug, colonies counted after 7 days; ID50 = concentration producing 50% inhibition of colony formation; read-out: IN VITRO ID 50 HCT116
Method: Four hundred cells (HCT116) were plated in 60 mm Petri dishes containing 2.7 mL of medium (modified McCoy's 5a medium containing 10% fetal bovine serum and 100 units/mL penicillin and […] streptomycin). The cells were incubated in a CO2 incubator at 37 °C for 5 h for attachment to the bottom of Petri dishes. The compounds identified in Example 2 were made up fresh in medium at ten times the final concentration, and then 0.3 mL of this stock solution was added to the 2.7 mL of medium in the dish. The cells were then incubated with drugs for 72 h at 37 °C. At the end of incubation the drug-containing media were decanted, the dishes were rinsed with 4 mL of Hank's Balance Salt Solution (HBSS), 5 mL of fresh medium was added, and the dishes were returned to the incubator for colony formation. The cell colonies were counted using a colony counter after incubation for 7 days.

SMILES	IC50 [nM]
CC=CC(=O)OC1C(=O)C2(C)C(O)CC3OCC3(OC(C)=O)C2C(OC(=O)c2ccccc2)C2(O)CC(OC(=O)C(O)C(NC(=O)OC(C)(C)C)C3CCC3)C(C)=C1C2(C)C (stereo not drawn) [Compound 2424]	< 10

Same assay, conditions: Homo sapiens, HCT-116; read-out: IN VITRO ID 50 HCT116

SMILES	IC50 [nM]
CC(=O)O[C@@]12CO[C@@H]1C[C@H](O)[C@@]1(C)C(=O)[C@H](OC(=O)c3cccs3)C3=C(C)[C@@H](OC(=O)[C@H](O)[C@@H](NC(=O)OC(C)(C)C)c4ccco4)C[C@@](O)([C@@H](OC(=O)c4ccccc4)[C@H]21)C3(C)C [Compound 1892]	< 1
CCC(=O)O[C@H]1C(=O)[C@@]2(C)[C@H]([C@H](OC(=O)c3ccccc3)[C@]3(O)C[C@H](OC(=O)[C@H](O)[C@@H](NC(=O)c4cccs4)c4ccco4)C(C)=C1C3(C)C)[C@]1(OC(C)=O)CO[C@@H]1C[C@@H]2O [Compound 3644]	< 1
CCC(=O)O[C@H]1C(=O)[C@@]2(C)[C@H]([C@H](OC(=O)c3ccccc3)[C@]3(O)C[C@H](OC(=O)[C@H](O)[C@@H](NC(=O)c4ccccc4)C4CCC4)C(C)=C1C3(C)C)[C@]1(OC(C)=O)CO[C@@H]1C[C@@H]2O [Compound 0720]	< 10
CCCC(=O)N[C@@H](c1ccco1)[C@@H](O)C(=O)O[C@H]1C[C@@]2(O)[C@@H](OC(=O)c3ccccc3)[C@@H]3[C@]4(OC(C)=O)CO[C@@H]4C[C@H](O)[C@@]3(C)C(=O)[C@H](OC(=O)CC)C(=C1C)C2(C)C [Compound 3219]	< 1
CCCC(=O)O[C@H]1C(=O)[C@@]2(C)[C@H]([C@H](OC(=O)c3ccccc3)[C@]3(O)C[C@H](OC(=O)[C@H](O)[C@@H](NC(=O)c4ccccc4)C4CC4)C(C)=C1C3(C)C)[C@]1(OC(C)=O)CO[C@@H]1C[C@@H]2O [Compound 3482]	< 1
CCCC(=O)O[C@H]1C(=O)[C@@]2(C)[C@H]([C@H](OC(=O)c3ccccc3)[C@]3(O)C[C@H](OC(=O)[C@H](O)[C@@H](NC(=O)OC(C)C)c4ccco4)C(C)=C1C3(C)C)[C@]1(OC(C)=O)CO[C@@H]1C[C@@H]2O [Compound 3417]	< 1
CC(=O)O[C@@]12CO[C@@H]1C[C@H](O)[C@@]1(C)C(=O)[C@H](OC(=O)C3CC3)C3=C(C)[C@@H](OC(=O)[C@H](O)[C@@H](NC(=O)OC(C)C)c4ccco4)C[C@@](O)([C@@H](OC(=O)c4ccccc4)[C@H]21)C3(C)C [Compound 3853]	< 1
CC(=O)O[C@@]12CO[C@@H]1C[C@H](O)[C@@]1(C)C(=O)[C@H](OC(=O)C3CC3)C3=C(C)[C@@H](OC(=O)[C@H](O)[C@H](C=C(C)C)NC(=O)OCC(C)C)C[C@@](O)([C@@H](OC(=O)c4ccccc4)[C@H]21)C3(C)C [Compound 4720]	< 10
CC(=O)OC12COC1CC(O)C1(C)C(=O)C(OC(=O)C(C)C)C3=C(C)C(OC(=O)C(O)C(C=C(C)C)NC(=O)OC(C)(C)C)CC(O)(C(OC(=O)c4ccccc4)C21)C3(C)C (stereo not drawn) [Compound 2226]	< 1
CCCC(=O)N[C@@H](c1cccs1)[C@@H](O)C(=O)O[C@H]1C[C@@]2(O)[C@@H](OC(=O)c3ccccc3)[C@@H]3[C@]4(OC(C)=O)CO[C@@H]4C[C@H](O)[C@@]3(C)C(=O)[C@H](OC(=O)C3CC3)C(=C1C)C2(C)C [Compound 3132]	< 1
CC(=O)O[C@@]12CO[C@@H]1C[C@H](O)[C@@]1(C)C(=O)[C@H](OC(=O)C3CC3)C3=C(C)[C@@H](OC(=O)[C@H](O)[C@@H](NC(=O)c4ccco4)c4ccco4)C[C@@](O)([C@@H](OC(=O)c4ccccc4)[C@H]21)C3(C)C [Compound 3866]	< 1
CC(=O)OC12COC1CC(O)C1(C)C(=O)C(OC(=O)C(C)C)C3=C(C)C(OC(=O)C(O)C(NC(=O)OC(C)(C)C)c4ccncc4)CC(O)(C(OC(=O)c4ccccc4)C21)C3(C)C (stereo not drawn) [Compound 2255]	< 1
CC(=O)O[C@@]12CO[C@@H]1C[C@H](O)[C@@]1(C)C(=O)[C@H](OC(=O)c3ccco3)C3=C(C)[C@@H](OC(=O)[C@H](O)[C@@H](NC(=O)OC(C)(C)C)c4ccco4)C[C@@](O)([C@@H](OC(=O)c4ccccc4)[C@H]21)C3(C)C [Compound 2142]	< 1
CCC(=O)O[C@H]1C(=O)[C@@]2(C)[C@H]([C@H](OC(=O)c3ccccc3)[C@]3(O)C[C@H](OC(=O)[C@H](O)[C@@H](NC(=O)c4ccccc4)c4ccsc4)C(C)=C1C3(C)C)[C@]1(OC(C)=O)CO[C@@H]1C[C@@H]2O [Compound 0691]	< 1
CCCC(=O)O[C@H]1C(=O)[C@@]2(C)[C@H]([C@H](OC(=O)c3ccccc3)[C@]3(O)C[C@H](OC(=O)[C@H](O)[C@@H](NC(=O)OCC)c4cccs4)C(C)=C1C3(C)C)[C@]1(OC(C)=O)CO[C@@H]1C[C@@H]2O [Compound 3096]	< 1
CC(=O)O[C@@]12CO[C@@H]1C[C@H](O)[C@@]1(C)C(=O)[C@H](OC(=O)C=C(C)C)C3=C(C)[C@@H](OC(=O)[C@H](O)[C@@H](NC(=O)OC(C)(C)C)c4ccsc4)C[C@@](O)([C@@H](OC(=O)c4ccccc4)[C@H]21)C3(C)C [Compound 2511]	< 1

SMILES	IC50 [nM]
CCC(=O)O[C@H]1C(=O)[C@@]2(C)[C@H]([C@H](OC(=O)c3ccccc3)[C@]3(O)C[C@H](OC(=O)[C@H](O)[C@@H](NC(=O)c4ccccc4)c4ccc([N+](=O)[O-])cc4)C(C)=C1C3(C)C)[C@]1(OC(C)=O)CO[C@@H]1C[C@@H]2O [Compound 0732]	< 10
CCCC(=O)O[C@H]1C(=O)[C@@]2(C)[C@H]([C@H](OC(=O)c3ccccc3)[C@]3(O)C[C@H](OC(=O)[C@H](O)[C@@H](NC(=O)c4ccccc4)c4ccco4)C(C)=C1C3(C)C)[C@]1(OC(C)=O)CO[C@@H]1C[C@@H]2O [Compound 3204]	< 1
CCC(=O)O[C@H]1C(=O)[C@@]2(C)[C@H]([C@H](OC(=O)c3ccccc3)[C@]3(O)C[C@H](OC(=O)[C@H](O)[C@@H](NC(=O)c4cccs4)c4cccs4)C(C)=C1C3(C)C)[C@]1(OC(C)=O)CO[C@@H]1C[C@@H]2O [Compound 3425]	< 1
CC(=O)O[C@@]12CO[C@@H]1C[C@H](O)[C@@]1(C)C(=O)[C@H](OC(=O)c3cccs3)C3=C(C)[C@@H](OC(=O)[C@H](O)[C@H](C=C(C)C)NC(=O)OC(C)(C)C)C[C@@](O)([C@@H](OC(=O)c4ccccc4)[C@H]21)C3(C)C [Compound 1879]	< 10
CCCC(=O)O[C@H]1C(=O)[C@@]2(C)[C@H]([C@H](OC(=O)c3ccccc3)[C@]3(O)C[C@H](OC(=O)[C@H](O)[C@@H](NC(=O)c4cccnc4)c4cccs4)C(C)=C1C3(C)C)[C@]1(OC(C)=O)CO[C@@H]1C[C@@H]2O [Compound 4190]	< 10
CCC(=O)O[C@H]1C(=O)[C@@]2(C)[C@H]([C@H](OC(=O)c3ccccc3)[C@]3(O)C[C@H](OC(=O)[C@H](O)[C@@H](NC(=O)c4cccnc4)c4cccs4)C(C)=C1C3(C)C)[C@]1(OC(C)=O)CO[C@@H]1C[C@@H]2O [Compound 4121]	< 10
CC(=O)O[C@@]12CO[C@@H]1C[C@H](O)[C@@]1(C)C(=O)[C@H](OC(=O)c3ccco3)C3=C(C)[C@@H](OC(=O)[C@H](O)[C@@H](NC(=O)OC(C)(C)C)c4cccnc4)C[C@@](O)([C@@H](OC(=O)c4ccccc4)[C@H]21)C3(C)C [Compound 2124]	< 10
CCC(=O)O[C@H]1C(=O)[C@@]2(C)[C@H]([C@H](OC(=O)c3ccccc3)[C@]3(O)C[C@H](OC(=O)[C@H](O)[C@@H](NC(=O)c4ccccc4)c4ccccn4)C(C)=C1C3(C)C)[C@]1(OC(C)=O)CO[C@@H]1C[C@@H]2O [Compound 0634]	< 10
CC(=O)O[C@@]12CO[C@@H]1C[C@H](O)[C@@]1(C)C(=O)[C@H](OC(=O)C3CC3)C3=C(C)[C@@H](OC(=O)[C@H](O)[C@@H](NC(=O)c4cccs4)c4cccs4)C[C@@](O)([C@@H](OC(=O)c4ccccc4)[C@H]21)C3(C)C [Compound 3453]	< 1
CCCC(=O)N[C@@H](c1ccco1)[C@@H](O)C(=O)O[C@H]1C[C@@]2(O)[C@@H](OC(=O)c3ccccc3)[C@@H]3[C@]4(OC(C)=O)CO[C@@H]4C[C@H](O)[C@@]3(C)C(=O)[C@H](OC(=O)CCC)C(=C1C)C2(C)C [Compound 3222]	< 1
CCCC(=O)O[C@H]1C(=O)[C@@]2(C)[C@H]([C@H](OC(=O)c3ccccc3)[C@]3(O)C[C@H](OC(=O)[C@H](O)[C@@H](NC(=O)OC(C)(C)C)C(C)C)C(C)=C1C3(C)C)[C@]1(OC(C)=O)CO[C@@H]1C[C@@H]2O [Compound 1031]	< 10
CC(=O)O[C@@]12CO[C@@H]1C[C@H](O)[C@@]1(C)C(=O)[C@H](OC(=O)C3CC3)C3=C(C)[C@@H](OC(=O)[C@H](O)[C@@H](NC(=O)OC(C)(C)C)c4ccsc4)C[C@@](O)([C@@H](OC(=O)c4ccccc4)[C@H]21)C3(C)C [Compound 2794]	< 1
CC(=O)O[C@@]12CO[C@@H]1C[C@H](O)[C@@]1(C)C(=O)[C@H](OC(=O)C3CC3)C3=C(C)[C@@H](OC(=O)[C@H](O)[C@@H](NC(=O)c4ccccc4)c4ccccn4)C[C@@](O)([C@@H](OC(=O)c4ccccc4)[C@H]21)C3(C)C [Compound 2844]	< 10
CC(=O)O[C@@]12CO[C@@H]1C[C@H](O)[C@@]1(C)C(=O)[C@H](OC(=O)C3CC3)C3=C(C)[C@@H](OC(=O)[C@H](O)[C@@H](NC(=O)c4ccco4)c4cccs4)C[C@@](O)([C@@H](OC(=O)c4ccccc4)[C@H]21)C3(C)C [Compound 3297]	< 1
CCOC(=O)N[C@@H](c1ccco1)[C@@H](O)C(=O)O[C@H]1C[C@@]2(O)[C@@H](OC(=O)c3ccccc3)[C@@H]3[C@]4(OC(C)=O)CO[C@@H]4C[C@H](O)[C@@]3(C)C(=O)[C@H](OC(=O)C3CC3)C(=C1C)C2(C)C [Compound 3677]	< 1
CC(=O)O[C@@]12CO[C@@H]1C[C@H](O)[C@@]1(C)C(=O)[C@H](OC(=O)c3ccco3)C3=C(C)[C@@H](OC(=O)[C@H](O)[C@@H](NC(=O)OC(C)(C)C)c4cccs4)C[C@@](O)([C@@H](OC(=O)c4ccccc4)[C@H]21)C3(C)C [Compound 2164]	< 1
